From article PMC9330635, “Halogenated Pyrrolopyrimidines with Low MIC on Staphylococcus aureus and Synergistic Effects with an Antimicrobial Peptide” (Antibiotics, 2022) come the findings set out here.

The subject of one series is E. coli (MG1655). As to the kind of experiment: MIC by broth microdilution, E. coli. The format is cell-based, Escherichia coli. As to conditions: E. coli MG1655, broth microdilution; for MIC: Escherichia coli. How it is done:
(§1) In this study, we have, therefore, altered our strategy and used minimal inhibitory concentration assays to identify and improve antibacterial agents. A total of 10 pyrrolopyrimidines with variation of the 4-amino group were assayed for their MIC in E. coli (MG1655) and S. aureus (ATCC29213) using the broth microdilution method. Subsequently, the compounds were also counter-screened for their inhibition of human EGFR.
(§2) The MIC of compound 1–21 towards Escherichia coli (MG1655) and Staphylococcus aureus (ATCC29213) was determined following the standards that were recommended by the Clinical and Laboratory Standards Institute (CLSI) for the broth microdilution method. Briefly, the bacterial suspensions were adjusted to 0.5 McFarland standard (~1 × 10^8 colony forming units (CFU)/mL) and diluted 1:200 in Cation-Adjusted Mueller-Hinton Broth (CAMHB, […], […]). The suspension was subsequently added to polypropylene microtiter plates (100 µL/well, ~5 × 10^4 CFU/well) that were already prepared with different concentrations of the various halogenated fused pyrimidines (11 µL/well, two-fold serial dilutions). The plates were incubated at 37 °C overnight before inspection for visible growth and determination of the MIC values.

A further series deals with S. aureus (ATCC29213). In words: MIC by broth microdilution, S. aureus. It is filed as cell-based, Staphylococcus aureus. Particulars: for MIC: Staphylococcus aureus; for Activity towards S. aureus (in words): culture, MIC assay. How it is done:
as §1, §2

In a further series the target is T1, human EGFR (Homo sapiens, UniProt P00533).
T1 construct: purchased Invitrogen (ThermoFisher), assay service
As to the kind of experiment: Enzymatic EGFR (ErbB1) inhibition, Z'-LYTE. It is filed as biochemical. As to conditions: 100 nM compound, ATP equal to KM. How it is done:
The compounds were supplied in a 10 mM DMSO solution, and enzymatic EGFR (ErbB1) inhibition potency was determined by Invitrogen (ThermoFisher) using their Z’-LYTE® assay technology. The compounds were tested for their inhibitory activity at 100 nM in duplicates. The IC50 values that were reported for 1 and 5 are based on the average of 2 titration curves (20 data points), and were calculated from activity data with a four-parameter logistic model using SigmaPlot (Windows Version 12.0 from Systat Software, Inc., Palo Alto, CA, USA). Unless stated otherwise, the ATP concentration that was used was equal to apparent KM.

Another series has as its system S. aureus. As to the kind of experiment: MIC towards S. aureus in combination with the peptide betatide. The format is cell-based, Staphylococcus aureus. As to conditions: betatide 8 mg/L (half its MIC). How it is done: The concentration of betatide was 8 mg/L, which corresponds to half the MIC concentration.
as §2

[1] abbreviates: S. aureus ATCC29213, broth microdilution, read-out: S. aureus MIC.
Setting [2] is: ATCC29213, S. aureus, single agent (Table 3), read-out: Single Comp. MIC.

Converted amounts (≈) assume the structure as drawn. Like-named read-outs stand apart in the source and are kept apart here. A value given as a limit tells only on which side of the number the result lay.

For `COc1ccc(-c2cc3c(N[C@@H](C)c4ccc(Br)cc4)ncnc3[nH]2)cc1` [Compound 11, (S)-N-(1-(4-Bromophenyl)ethyl)-6-(4-methoxyphenyl)-7H-pyrrolo[2,3-d]pyrimidin-4-amine], the MIC with E. coli (MG1655) and in the series on S. aureus (ATCC29213) (setting [1]) was > 128 µg/mL in each case.
As for `COC(=O)c1ccc(-c2cc3c(N[C@H](C)c4ccc(Br)cc4)ncnc3[nH]2)cc1` [Compound 16, Methyl (R)-4-(4-((1-(4-bromophenyl)ethyl)amino)-7H-pyrrolo[2,3-d]pyrimidin-6-yl)be-nzoate], the MIC against E. coli (MG1655) and in the series with S. aureus (ATCC29213) (setting [1]) was > 128 µg/mL in each case. This molecule also came in with an inhibition at 0.1 µM at human EGFR of 42%.
For `C[C@@H](Nc1ncnc2[nH]c(-c3cccc(O)c3)cc12)c1ccc(Br)cc1` [Compound 19, (R)-3-(4-((1-(4-Bromophenyl)ethyl)amino)-7H-pyrrolo[2,3-d]pyrimidin-6-yl)phenol], the “Combination with Betatide MIC” value with S. aureus was 2 µg/mL. Also, the MIC was > 128 µg/mL in the series on E. coli (MG1655), 8 µg/mL (≈ 19.5 µM) with S. aureus (ATCC29213) (setting [2]) and 16 µg/mL (≈ 39.1 µM) with S. aureus (ATCC29213) (setting [1]). The molecule further came in with an inhibition at 0.1 µM on human EGFR of 73%.
In the case of `Cc1ccc([C@@H](C)Nc2ncnc3[nH]c(-c4ccc(O)cc4)cc23)cc1` [Compound 2, (R)-4-(4-((1-(p-Tolyl)ethyl)amino)-7H-pyrrolo[2,3-d]pyrimidin-6-yl)phenol], the “Combination with Betatide MIC” value in the series on S. aureus came to 8 µg/mL. The MIC is > 128 µg/mL in the series with E. coli (MG1655), 16 µg/mL (≈ 46.5 µM) with S. aureus (ATCC29213) (setting [2]) and 16 µg/mL (≈ 46.5 µM) in the series with S. aureus (ATCC29213) (setting [1]). Besides, on human EGFR, the inhibition at 0.1 µM was 91%.
Take `C[C@@H](Nc1ncnc2[nH]c(-c3ccc(O)cc3)cc12)c1cccc(Br)c1` [Compound 7, (R)-4-(4-((1-(3-Bromophenyl)ethyl)amino)-7H-pyrrolo[2,3-d]pyrimidin-6-yl)phenol]: the “Combination with Betatide MIC” value in the series on S. aureus was 4 µg/mL. Also, the results for the MIC with E. coli (MG1655), in the series with S. aureus (ATCC29213) (setting [2]) and in the series with S. aureus (ATCC29213) (setting [1]) were > 128 µg/mL, 16 µg/mL (≈ 39.1 µM) and 16 µg/mL (≈ 39.1 µM), respectively. 0.1 µM produced 89% inhibition against human EGFR.
Turning to `C[C@@H](Nc1ncnc2[nH]c(-c3ccccc3)cc12)c1ccc(Br)cc1` [Compound 12, (R)-N-(1-(4-Bromophenyl)ethyl)-6-phenyl-7H-pyrrolo[2,3-d] pyrimidin-4-amine], the MIC in the series with E. coli (MG1655) and with S. aureus (ATCC29213) (setting [1]) was > 128 µg/mL throughout. This molecule had an inhibition at 0.1 µM on human EGFR of 66%.
For `C[C@@H](Nc1ncnc2[nH]c(-c3ccc(N)cc3)cc12)c1ccc(Br)cc1` [Compound 15, (R)-6-(4-Aminophenyl)-N-(1-(4-bromophenyl)ethyl)-7H-pyrrolo[2,3-d]pyrimidin-4-amine], the MIC with E. coli (MG1655) and in the series on S. aureus (ATCC29213) (setting [1]) was > 128 µg/mL throughout. On human EGFR, this molecule showed an inhibition at 0.1 µM of 90%.
For `Oc1ccc(-c2cc3c(NCc4ccc(Br)cc4)ncnc3[nH]2)cc1` [Compound 8, 4-(4-((4-Bromobenzyl)amino)-7H-pyrrolo[2,3-d]pyrimidin-6-yl)phenol], the MIC with E. coli (MG1655) and with S. aureus (ATCC29213) (setting [1]) was > 128 µg/mL in each case. The molecule further came in with an inhibition at 0.1 µM at human EGFR of 67%. Further, the “Activity towards S. aureus (in words)” value in the series with S. aureus (ATCC29213) was “abolished all activity”.
For the molecule `C[C@@H](Nc1ncnc2[nH]c(-c3ccc([N+](=O)[O-])cc3)cc12)c1ccc(Br)cc1` [Compound 14, (R)-N-(1-(4-Bromophenyl)ethyl)-6-(4-nitrophenyl)-7H-pyrrolo [2,3-d] pyrimidin-4-amine], the MIC with E. coli (MG1655) and in the series on S. aureus (ATCC29213) (setting [1]) was > 128 µg/mL in each case. This molecule also registered an inhibition at 0.1 µM against human EGFR of 33%.
As to `C[C@@H](Nc1ncnc2[nH]c(-c3ccc(F)cc3)cc12)c1ccc(Br)cc1` [Compound 13, (R)-N-(1-(4-Bromophenyl)ethyl)-6-(4-fluorophenyl)-7H-pyrrolo[2,3-d] pyrimidin-4-amine], the minimum inhibitory concentration (MIC) in the series on E. coli (MG1655) and in the series on S. aureus (ATCC29213) (setting [1]) was > 128 µg/mL in each case. The molecule further yielded an inhibition at 0.1 µM against human EGFR of 58%.
In the case of `C[C@@H](Nc1ncnc2[nH]c(-c3ccc(O)cc3)cc12)c1ccc(Cl)cc1` [Compound 4, (R)-4-(4-((1-(4-Chlorophenyl)ethyl)amino)-7H-pyrrolo[2,3-d]pyrimidin-6-yl)phenol], the melting point is 216.6 °C (dec.). In addition, the “Combination with Betatide MIC” value in the series with S. aureus amounted to 4 µg/mL. The minimum inhibitory concentration (MIC) against E. coli (MG1655) is > 128 µg/mL. This molecule displayed an inhibition at 0.1 µM against human EGFR of 91%. In the series with S. aureus (ATCC29213) (setting [2]), the minimum inhibitory concentration (MIC) is 16 µg/mL (≈ 43.9 µM). For the same molecule, the minimal inhibitory concentration (MIC) with S. aureus (ATCC29213) (setting [1]) came out at 16 µg/mL (≈ 43.9 µM).
For “(R)-4-(4-((1-(4-Bromophenyl)ethyl)(methyl)amino)-7H-pyrrolo [2,3-d]pyrimidin-6-yl)phenol [Compound 10]”, in the series with E. coli (MG1655), the “E. coli MIC” value is >128 µg/mL. Further, on human EGFR, the “Human EGFR % inhibition” value worked out at 16%. Also, the “S. aureus MIC” value in the series on S. aureus (ATCC29213) (S. aureus ATCC29213, broth microdilution) is >128 µg/mL. Also, the “Activity towards S. aureus (in words)” value with S. aureus (ATCC29213) is listed as “abolished all activity”.
Turning to `C[C@@H](Nc1ncnc2[nH]c(-c3ccc(O)cc3)cc12)c1ccc(I)cc1` (hydrate or solvate) [Compound 6, (R)-4-(4-((1-(4-Iodophenyl)ethyl)amino)-7H-pyrrolo[2,3-d]pyrimidin-6-yl)phenol], the melting point was 254.9 to 256 °C (dec.).
With `C[C@@H](Nc1ncnc2sc(-c3ccc(O)cc3)cc12)c1ccc(Br)cc1` [Compound 21, (R)-4-(4-((1-(4-Bromophenyl)ethyl)amino)thieno[2,3-d]pyrimidin-6-yl)phenol], the “Combination with Betatide MIC” value in the series with S. aureus is 4 µg/mL. For the same molecule, the values for the minimal inhibitory concentration (MIC) in the series with E. coli (MG1655), in the series on S. aureus (ATCC29213) (setting [2]) and in the series with S. aureus (ATCC29213) (setting [1]) were > 128 µg/mL, 32 µg/mL (≈ 75.1 µM) and 32 µg/mL (≈ 75.1 µM), respectively. Moreover, 0.1 µM produced 5% inhibition on human EGFR.
In the case of `C[C@@H](Nc1ncnc2[nH]c(-c3ccc(O)cc3)cc12)c1ccc(F)cc1` [Compound 3], the minimum inhibitory concentration (MIC) with E. coli (MG1655) and with S. aureus (ATCC29213) (setting [1]) was > 128 µg/mL throughout. This molecule had an inhibition at 0.1 µM at human EGFR of 92%. In addition, in the series with S. aureus (ATCC29213), the “Activity towards S. aureus (in words)” value is “inactive”.
In the case of `C[C@@H](Nc1ncnc2[nH]c(-c3ccc(O)cc3)cc12)c1ccc(I)cc1` [Compound 6, (R)-4-(4-((1-(4-Iodophenyl)ethyl)amino)-7H-pyrrolo[2,3-d]pyrimidin-6-yl)phenol], the “Combination with Betatide MIC” value in the series on S. aureus amounted to 2 µg/mL. For the same molecule, the values for the MIC in the series with E. coli (MG1655), in the series on S. aureus (ATCC29213) (setting [2]) and in the series with S. aureus (ATCC29213) (setting [1]) were > 128 µg/mL, 8 µg/mL (≈ 17.5 µM) and 8 µg/mL (≈ 17.5 µM), respectively. The molecule further displayed an inhibition at 0.1 µM against human EGFR of 43%.
In the case of `C[C@@H](Nc1ncnc2[nH]c(-c3ccc(S(N)(=O)=O)cc3)cc12)c1ccc(Br)cc1` [Compound 17, (R)-4-(4-((1-(4-Bromophenyl)ethyl)amino)-7H-pyrrolo[2,3-d]pyrimidin-6-yl)benzene-sulfonamide], the MIC in the series on E. coli (MG1655) and with S. aureus (ATCC29213) (setting [1]) was > 128 µg/mL each time. Further, on human EGFR, the inhibition at 0.1 µM was 85%.
With `C[C@@H](Nc1ncnc2[nH]c(-c3ccccc3O)cc12)c1ccc(Br)cc1` [Compound 18, (R)-2-(4-((1-(4-Bromophenyl)ethyl)amino)-7H-pyrrolo[2,3-d]pyrimidin-6-yl)phenol], the MIC in the series with E. coli (MG1655) and with S. aureus (ATCC29213) (setting [1]) was > 128 µg/mL throughout. The inhibition at 0.1 µM against human EGFR turned out to be 80%.
`C[C@H](Nc1ncnc2[nH]c(-c3ccc(O)cc3)cc12)c1ccc(Br)cc1` [Compound 9, (S)-4-(4-((1-(4-Bromophenyl)ethyl)amino)-7H-pyrrolo[2,3-d]pyrimidin-6-yl)phenol]: the minimal inhibitory concentration (MIC) against E. coli (MG1655) and in the series on S. aureus (ATCC29213) (setting [1]) was > 128 µg/mL each time. Further, the “Activity towards S. aureus (in words)” value in the series with S. aureus (ATCC29213) is reported as “abolished all activity”.
In the case of `COc1ccc(-c2cc3c(N[C@H](C)c4ccc(Br)cc4)ncnc3s2)cc1` [Compound 20, (R)-N-(1-(4-Bromophenyl)ethyl)-6-(4-methoxyphenyl)thieno [2,3-d] pyrimidin-4-amine], the melting point was in the range of 107.1 to 109.4 °C. The MIC against E. coli (MG1655) is > 128 µg/mL. The molecule further showed an inhibition at 0.1 µM against human EGFR of 12%. The minimum inhibitory concentration (MIC) in the series with S. aureus (ATCC29213) (setting [1]) is > 128 µg/mL. For the same molecule, the “Activity towards S. aureus (in words)” value in the series with S. aureus (ATCC29213) is “no activity”.
The molecule `C[C@@H](Nc1ncnc2sc(-c3ccc(O)cc3)cc12)c1ccc(Br)cc1` (hydrate or solvate) [Compound 21, (R)-4-(4-((1-(4-Bromophenyl)ethyl)amino)thieno[2,3-d]pyrimidin-6-yl)phenol] yielded a melting point of 144.1 to 145.4 °C.
